The record followed here is patent US9221783B2, “Phenylalkyl sulfamate compound and muscle relaxant composition comprising the same” (BIO-PHARM SOLUTIONS CO., LTD., priority 2012, dated 2015).

In the assay the test system is male mice (ICR). In words: Muscle relaxation activity by grip strength test (forelimbs). Format: in vivo. Conditions: intraperitoneal, dose 200 (unit not given). As to the method:
For testing, male mice (ICR) were purchased from ORIENT BIO INC. (Korea), divided into several groups with 6 mice in each group, and were adapted for 4-5 days. The mice having the weight ranging from 19 g to 26 g were employed for the test. The pharmacological effect of the test compounds on muscle relaxation was evaluated by Rotarod test, grip strength test, and muscular force (wire hang) test. All mice were adapted to the test environment at one hour before starting the tests. The pharmacological effects of all the test compounds were evaluated by administration through peritoneal cavity of the mice (10 ul/g, bw).
The test was conducted before and after administration of the compounds to evaluate the effects thereof. […] The mouse was made to grip the rod with its forelimbs, and its tail was pulled, where the force at which the mouse detached from the rod was recorded. The instrument indicated the force in grams. All of the mice were given 3 opportunities for test, and the 3 highest values among the test opportunities were selected and the mean value was used as the test result. […] Psychopharmacol. 110: 92-96’.
The obtained results are shown as mean±sem. The difference between the groups was statistically analyzed by ANOVA, and then, further examined by Dunnett's test or Bonferroni test. If p is less than 0.05, it was determined that the difference between the groups had statistical significance.
For the compound `NS(=O)(=O)OCC[C@H]1OC2(CCCC2)O[C@@H]1Cc1ccccc1` [Example 118, 2-((2R,3R)-3-benzyl-1,4-dioxaspiro[4,4]nonan-2-yl)ethyl sulfamate], the “Grip strength, percentage compared to the vehicle only (100%)” value (shortened to “Grip strength, percentage … (100%)”) is 200 (83.7%).
As to `NS(=O)(=O)OC[C@@H]1OC2(CCCC2)O[C@H]1c1ccccc1Cl` [Example 10, ((2S,3S)-3-(2-chlorophenyl)-1,4-dioxaspiro[4,4]nonan-2-yl)methyl sulfamate], the “Grip strength, percentage … (100%)” value was 200 (91.2%).
For `CC1(C)O[C@@H](CCOS(N)(=O)=O)[C@H](c2ccccc2)O1` [Example 130, 2-((4S,5S)-5-phenyl-2,2-dimethyl-1,3-dioxolan-4-yl)ethyl sulfamate], the “Grip strength, percentage … (100%)” value is listed as 200 (91.4%).
Then `CCC1(CC)O[C@@H](COS(N)(=O)=O)[C@H](c2ccccc2Cl)O1` [Example 8, ((4S,4S)-5-(2-chlorophenyl)-2,2-diethyl-1,3-dioxolan-4-yl)methyl sulfamate], with 200 (59.6%); and `CNc1ccccc1[C@@H]1OC(C)(C)O[C@H]1COS(=O)(=O)NC` [Example 104, ((4S,5S)-5-(2-methylaminophenyl)-2,2-dimethyl-1,3-dioxolan-4-yl)methyl methylsulfamate], with 200 (71.3%).
As for `CC1(C)O[C@H](COS(N)(=O)=O)[C@@H](Cc2ccccc2)O1` [Example 122, ((4R,5R)-5-benzyl-2,2-dimethyl-1,3-dioxolan-4-yl)methyl sulfamate], the “Grip strength, percentage … (100%)” value was 200 (61.6%).
Then `CC1(C)O[C@@H](COS(N)(=O)=O)[C@H](c2ccc(Cl)cc2Cl)O1` [Example 40, ((4S,5S)-5-(2,4-dichlorophenyl)-2,2-dimethyl-1,3-dioxolan-4-yl)methyl sulfamate], with 200 (79.3%).
Then `NS(=O)(=O)OCC[C@@H]1OC2(CCCC2)O[C@H]1c1ccccc1` [Example 134, 2-((2S,3S)-3-phenyl-1,4-dioxaspiro[4,4]nonan-2-yl)ethyl sulfamate], with 200 (90.1%).
For `CCC1(CC)O[C@H](COS(N)(=O)=O)[C@@H](Cc2ccccc2Cl)O1` [Example 148, ((4R,5R)-5-(2-chlorobenzyl)-2,2-diethyl-1,3-dioxolan-4-yl)methyl sulfamate], the “Grip strength, percentage … (100%)” value is given as 200 (70.2%).
Then `Nc1ccccc1[C@@H]1OC(c2ccccc2)O[C@H]1COS(N)(=O)=O` (stereo partly drawn) [Example 76, ((4S,5S)-5-(2-aminophenyl)-2-phenyl-1,3-dioxolan-4-yl)methyl sulfamate], with 200 (78.5%).
Then `NS(=O)(=O)OCC[C@H]1OC2(CCCCC2)O[C@@H]1Cc1ccccc1` [Example 120, 2-((2R,3R)-3-benzyl-1,4-dioxaspiro[4,5]decan-2-yl)ethyl sulfamate], with 200 (80.5%); and `NS(=O)(=O)OC[C@@H]1OC2(CCCC2)O[C@H]1c1ccccc1` [Example 110, ((2S,3S)-3-phenyl-1,4-dioxaspiro[4,4]nonan-2-yl)methyl sulfamate], with 200 (62.9%); and `NS(=O)(=O)OCC[C@H]1OC2(CCCC2)O[C@@H]1Cc1ccccc1Cl` [Example 142, 2-((2R,3R)-3-(2-chlorobenzyl)-1,4-dioxaspiro[4,4]nonan-2-yl)ethyl sulfamate], with 200 (66.8%).
Under `CC1(C)O[C@@H](COS(N)(=O)=O)[C@H](c2c(Cl)cccc2Cl)O1` [Example 52, ((4S,5S)-5-(2,6-dichlorophenyl)-2,2-dimethyl-1,3-dioxolan-4-yl)methyl sulfamate] stands 200 (28.2%).
Turning to `CCC1(CC)O[C@H](COS(N)(=O)=O)[C@@H](Cc2ccccc2)O1` [Example 124, ((4R,5R)-5-benzyl-2,2-diethyl-1,3-dioxolan-4-yl)methyl sulfamate], the “Grip strength, percentage … (100%)” value is listed as 200 (81.0%).
With `CC1(C)O[C@H](CCOS(N)(=O)=O)[C@@H](Cc2ccccc2)O1` [Example 114, 2-((4R,5R)-5-benzyl-2,2-dimethyl-1,3-dioxolan-4-yl)ethyl sulfamate], the “Grip strength, percentage … (100%)” value is on record as 200 (75.4%).
As for `CCC1(CC)O[C@@H](COS(N)(=O)=O)[C@H](c2ccccc2)O1` [Example 108, ((4S,5S)-5-phenyl-2,2-diethyl-1,3-dioxolan-4-yl)methyl sulfamate], the “Grip strength, percentage … (100%)” value is 200 (66.8%).
Under `CC1(C)O[C@@H](CCOS(N)(=O)=O)[C@H](c2ccccc2Cl)O1` [Example 154, ((4S,5S)-5-(2-chlorophenyl)-2,2-dimethyl-1,3-dioxolan-4-yl)ethyl sulfamate] stands 200 (70.4%); under `NS(=O)(=O)OC[C@H]1OC2(CCCCC2)O[C@@H]1Cc1ccccc1` [Example 128, ((2R,3R)-3-benzyl-1,4-dioxaspiro[4,5]decan-2-yl)methyl sulfamate], 200 (81.4%); under `CCC1(CC)O[C@H](CCOS(N)(=O)=O)[C@@H](Cc2ccccc2)O1` [Example 116, 2-((4R,5R)-5-benzyl-2,2-diethyl-1,3-dioxolan-4-yl)ethyl sulfamate], 200 (81.6%).
Then `NS(=O)(=O)OC[C@@H]1OC2(CCCCC2)O[C@H]1c1ccccc1` [Example 112, ((2S,3S)-3-phenyl-1,4-dioxaspiro[4,5]decan-2-yl)methyl sulfamate], with 200 (33.2%); and `NS(=O)(=O)OC[C@@H]1OC(=O)O[C@H]1c1ccccc1[N+](=O)[O-]` [Example 90, ((4S,5S)-5-(2-nitrophenyl)-2-oxo-1,3-dioxolan-4-yl)methyl sulfamate], with 200 (43.8%); and `Cc1ccccc1[C@@H]1OC(C)(C)O[C@H]1COS(N)(=O)=O` [Example 92, ((4S,5S)-5-(2-methylphenyl)-2,2-dimethyl-1,3-dioxolan-4-yl)methyl sulfamate], with 200 (46.2%).
Under `NS(=O)(=O)OC[C@H]1OC2(CCCC2)O[C@@H]1Cc1ccccc1` [Example 126, ((2R,3R)-3-benzyl-1,4-dioxaspiro[4,4]nonan-2-yl)methyl sulfamate] stands 200 (76.7%).
In the case of `CCC1(CC)O[C@H](CCOS(N)(=O)=O)[C@@H](Cc2ccccc2Cl)O1` [Example 140, 2-((4R,5R)-5-(2-chlorobenzyl)-2,2-diethyl-1,3-dioxolan-4-yl)ethyl sulfamate], the “Grip strength, percentage … (100%)” value is listed as 200 (73.4%).
Then `CC1(C)O[C@H](COS(N)(=O)=O)[C@@H](Cc2ccccc2Cl)O1` [Example 146, ((4R,5R)-5-(2-chlorobenzyl)-2,2-dimethyl-1,3-dioxolan-4-yl)methyl sulfamate], with 200 (79.2%).
Turning to `NS(=O)(=O)OCC[C@@H]1OC2(CCCCC2)O[C@H]1c1ccccc1Cl` [Example 160, 2-((2S,3S)-3-(2-chlorophenyl)-1,4-dioxaspiro[4,5]decan-2-yl)ethyl sulfamate], the “Grip strength, percentage … (100%)” value is listed as 200 (86.8%).
As to `CC1(C)O[C@H](CCOS(N)(=O)=O)[C@@H](Cc2ccccc2Cl)O1` [Example 138, 2-((4R,5R)-5-(2-chlorobenzyl)-2,2-dimethyl-1,3-dioxolan-4-yl)ethyl sulfamate], the “Grip strength, percentage … (100%)” value is on record as 200 (70.1%).
Regarding `CCC1(CC)O[C@@H](COS(N)(=O)=O)[C@H](c2ccccc2N)O1` [Example 70, ((4S,5S)-5-(2-aminophenyl)-2,2-diethyl-1,3-dioxolan-4-yl)methyl sulfamate], the “Grip strength, percentage … (100%)” value is given as 200 (78.6%).
Then `CCC1(CC)O[C@@H](CCOS(N)(=O)=O)[C@H](c2ccccc2Cl)O1` [Example 156, 2-((4S,5S)-5-(2-chlorophenyl)-2,2-diethyl-1,3-dioxolan-4-yl)ethyl sulfamate], with 200 (73.2%); and `NS(=O)(=O)OC[C@H]1OC2(CCCC2)O[C@@H]1Cc1ccccc1Cl` [Example 150, ((2R,3R)-3-(2-chlorobenzyl)-1,4-dioxaspiro[4,4]nonan-2-yl)methyl sulfamate], with 200 (89.8%); and `NS(=O)(=O)OCC[C@H]1OC2(CCCCC2)O[C@@H]1Cc1ccccc1Cl` [Example 144, 2-((2R,3R)-3-(2-chlorobenzyl)-1,4-dioxaspiro[4,5]decan-2-yl)ethyl sulfamate], with 200 (62.0%).
Then `CCC1(CC)O[C@@H](CCOS(N)(=O)=O)[C@H](c2ccccc2)O1` [Example 132, 2-((4S,5S)-5-phenyl-2,2-diethyl-1,3-dioxolan-4-yl)ethyl sulfamate], with 200 (25.7%).
Under `NS(=O)(=O)OC[C@@H]1OC2(CCCCC2)O[C@H]1c1ccccc1Cl` [Example 12, ((2S,3S)-3-(2-chlorophenyl)-1,4-dioxaspiro[4,5]decan-2-yl)methyl sulfamate] stands 200 (57.7%); under `NS(=O)(=O)OC[C@H]1OC2(CCCCC2)O[C@@H]1Cc1ccccc1Cl` [Example 152, ((2R,3R)-3-(2-chlorobenzyl)-1,4-dioxaspiro[4,5]decan-2-yl)methyl sulfamate], 200 (77.2%).
